Series [1] in a line: Drug level in tumor of human GTL16 cells xenografted in mouse assessed as tumor regression at 100 mg/kg, po qd for 5 days 2 to 10 hrs after last dose. Format: ADME, organism-based, Neoplasm. The arrangement: dose 100 mg/kg, route oral. As to conditions: in vivo.
Series [2] can be described thus: Oral bioavailability in rat at 5 mg/kg. It is filed as ADME, organism-based. To be noted: in vivo.
Series [3] in a line: Clearance in rat at 1 mg/kg, iv. Format: ADME, organism-based. Also noted: dose 1 mg/kg, route intravenous. As to conditions: in vivo.
Series [4] in a line: AUC (0 to infinity) in rat at 5 mg/kg, po. Format: ADME, organism-based. Also noted: time infinity, dose 5 mg/kg, route oral. As to conditions: plasma.
Series [5] in a line: AUC (0 to infinity) in rat at 1 mg/kg, iv. It is filed as ADME, organism-based. Also noted: time infinity, dose 1 mg/kg, route intravenous. To be noted: plasma.
Series [6] is described as follows: Half life in rat at 1 mg/kg, iv. The arrangement: dose 1 mg/kg, route intravenous. As to conditions: in vivo. It is filed as ADME, organism-based.
Series [7] can be described thus: Drug level in tumor of human GTL16 cells xenografted in mouse assessed as tumor regression at 100 mg/kg, po qd for 5 days 10 hrs after last dose. Format: ADME, organism-based, Neoplasm. Also noted: dose 100 mg/kg, route oral. To be noted: read-out: Drug uptake. (In general: Xenograft models place foreign cells or tissue in a host animal.)

A word on the bioavailability: it is dose-corrected exposure relative to a reference, in per cent. The low end stands for little systemic uptake, the high end for much systemic uptake. One may read the clearance as a measure of how efficiently the substance is removed, as volume per time. A high value points to efficient removal. Usually AUC(0-inf) stands for total exposure, with the tail of the curve extrapolated. By half-life is commonly meant the time needed for the level to fall by half in the phase considered. The low end stands for fast loss, the high end for slow loss. `CCOC(=O)N1CCCOc2cc(Nc3ncc(Cl)c(Nc4c(F)cccc4C(=O)NC)n3)ccc21`: in series [1], the Drug uptake is 125 ng/g. Besides, the bioavailability in series [2] worked out at 15%. Also, the clearance in series [3] was 15.3 mL/min/kg. Besides, the AUC(0-inf) stood at 913 ng·h/mL in series [4] and 1220 ng·h/mL in series [5]. In series [6], this compound gave a half-life of 72 min.
In series [4], `CCN1CCCOc2cc(Nc3ncc(Cl)c(Nc4c(F)cccc4C(=O)NC)n3)ccc21` had an AUC(0-inf) of less than 100 ng·h/mL.
With `CNC(=O)c1cccc(F)c1Nc1nc(Nc2ccc3c(c2)OCCCN3CCN2CCCC2)ncc1Cl`, in series [4], the AUC(0-inf) was less than 100 ng·h/mL.
For `CNC(=O)c1cccc(F)c1Nc1nc(Nc2ccc3c(c2)OCCCN3)ncc1Cl`, the clearance in series [3] amounted to 34 mL/min/kg. Besides, in series [7], the concentration at 10 h is greater than 200 ng/g. Also, the half-life in series [6] is 18 min.
